Where two headings read alike, the source gives them in different places. A value given as a limit tells only on which side of the number the result lay.

Data set [1] can be described thus: Photochemiluminescence (PCL) method, ACL kit. The format is biochemical. The settings on record: pure compound; Trolox equivalents; mean ± SE of three experiments. The protocol: (§1) PCL assay, based on the methodology of Popov and Lewin[23], was used to measure the antioxidant activity of synthesized compounds with a Photochem® apparatus (Analytik Jena, Leipzig, Germany) against superoxide anion radicals generated from luminol, a photosensitizer, when exposed to UV light (Double Bore® phosphor lamp, output 351 nm, 3 mWatt/cm^2). The antioxidant activity was measured using ACL (Antioxidant Capacity of Liposoluble substance) kit provided by the manufacturer designed to measure the antioxidant activity of lipophilic compounds[24]. […] The areas under the curves were calculated using the PCLsoft control and analysis software. […] This inhibition was used as a parameter for quantification and related to the decrease in the integral of PCL intensities caused by varying concentrations of Trolox. The observed inhibition of the signal was plotted against the concentration of Trolox added to the assay medium. The concentration of the added tested compounds was such that the generated luminescence during the 180-s sampling interval fell within the limits of the standard curve. The antioxidant assay was carried out in triplicate for each sample, and 20 μL of the diluted compound in HPLC-grade methanol (ACL) was sufficient to correspond to the standard curve.

Data set [2] in a line: PCL antioxidant activity of finished formulations. The format is biochemical. The conditions noted are these: 3% (w/w) compound in O/W formulation. The protocol:
as §1
It was decided to use a standard formulation oil in water (O/W).
In particular, molecules with phenolic hydroxyl in the ortho position on the phenyl ring (4, 5, 9, 10 and 13) had better and higher UVA/UVB ratio and critical wavelength, although they have the SPF value less than lead compound. Formulation containing products 2 and 14, which have a phenolic hydroxyl at the para position on the phenyl ring, have shown good values in terms of SPF, greater UVA protection factor, critical wavelength and also higher UVA/UVB ratio than PBSA, but yet lower than the molecules containing hydroxyl on the phenyl ring in ortho. […] Compound 8 has lower SPF than 3, but higher than PBSA; in comparison with 3, molecules 8 and 12 presented higher UVA/UVB ratio and critical wavelength. Regarding compounds with three hydroxyls on phenyl ring, they have good UVA filtering parameters, their critical wavelengths are the highest and SPF is higher than PBSA for molecule 6, while SPF of 15 is slightly lower and decreases further in molecule 11. Thus, it can be observed that parameters are mainly influenced by the number and position of the hydroxyl groups on the phenyl ring rather than the substituent in the 5-position of benzimidazole. Concomitantly, all formulations were analyzed to assess whether the antioxidant power was maintained. […] In Table 4, the antioxidant activity, measured by PCL method, of finished formulations is reported; as it can be seen results were in agreement with that obtained testing the pure compounds. […] Formulations containing compounds 3, 8 and 12 presented highest antioxidant capabilities; these are followed, but with important decrease in antioxidant capacity, by formulations with compounds 6, […] and 15 that have three hydroxyl moieties on phenyl ring.

Data set [3] in a line: Cytotoxicity, MTT test, 72 h. The conditions noted are these: human, NCTC-2544 keratinocytes (immortalized, nontumorigenic). (Tetrazolium dyes change colour on reduction, which living cells bring about.)
Description: (§3) An immortalized, nontumorigenic cell line of human keratinocytes (NCTC-2544) was grown in a DMEM medium (Sigma-Aldrich Milan, Italy), supplemented with 115 units/mL of penicillin G, 115 μg/mL streptomycin, and 10% fetal calf serum (Invitrogen, Milan, Italy). Individual wells of a 96-well tissue culture microtiter plates (Falcon, Becton–Dickinson) were inoculated with 100 μL of complete medium containing 5 × 10^3 NCTC-2544. The plates were incubated at 37 °C in a humidified (5% CO2) incubator for 18 h prior to the experiments.
After medium removal, 100 μL of the drug solution, dissolved in DMSO and diluted in DMEM medium, was added to each well, incubated at 37 °C for 72 h. Final DMSO concentration never exceeded 0.5%. Cell viability was assayed by the MTT (3–(4,5-dimethylthiazol-2-yl)-2,5 diphenyl tetrazolium bromide) test as previously described by Mosmann[27].
The tests were conducted using a specific cell line of human keratinocytes (NCTC-2544). To assess cell viability, in the presence of the study compounds, before and after the irradiation, the MTT assay was performed[27]. The cytotoxicity was checked after 72 h from the incubation of the keratinocytes with compounds; moreover, the same experiments were performed in the presence of the parent PBSA.
A further data set relates to NCTC-2544 cells. Nature of the data set: Phototoxicity / cellular photoprotection, UVA or UVB irradiation, MTT test. The conditions noted are these: for viability at 20 µM / viability at 50 µM: Homo sapiens, NCTC-2544, light or radiation study, 48 h; for cell survival in relation to the irradiated control: after UVB irradiation 1 J/cm^2; for phototoxic effect (cell survival vs irradiated control): NCTC-2544, UVA/UVB irradiation.

A short description of data set [4]: Photostability of formulations under solar simulator, HPLC. The settings on record: 3% formulation, 2 mg/cm^2, solar simulator 1 h, HPLC. It counts as physicochemical. As for the experimental part:
(§2) HPLC analysis was performed using an Agilent 1100 Series HPLC System equipped with a G1315A DAD, and with a Hydro-RP C18 Synergi 80 Å column (4.6 × 150 mm, 4 μm) from Phenomenex, maintained at 25 °C during all the time of the analysis. The mobile phase consisted of water (0.01 M H3PO4) (solvent A) and acetonitrile (0.01 M H3PO4) (solvent B). • PBSA and 3: the determination was carried out in isocratic condition, A: 91%/B: 9%. Separation was monitored with absorbance detection at λmax of the molecule ±8 nm. The flow rate was 1.0 mL/min. • […]: the determination was carried out in isocratic condition, A: 84%/B: 16%. Separation was monitored with absorbance detection at λmax of the molecule ±8 nm. The flow rate was 1.0 mL/min
The solar simulator emission was maintained at 500 W/m^2. A portion of cosmetic formulation containing the sunscreen molecule (3%, w/w) was transferred onto the bottom of a beaker to gain a cosmetic mount of 2 mg/cm^2 and then was irradiated for 1 h with the solar simulator. After irradiation the beaker was removed and its content quantitatively transferred into a 50 mL calibrated flask with methanol and the remaining sunscreen concentration was determined by HPLC as described above. All samples were protected from light both before and after irradiation, the degree of photodegradation was evaluated by comparing the areas of the irradiated samples, with those of the unirradiated preparations.
Stability and photostability tests were performed only on compounds that as provided with the best antioxidant capacity together with a good photoprotection activity (i.e. 3, and 12). At first, the effective concentration of filtering molecules was verified in the formulation by HPLC. Samples of the formulations (2 mg/cm^2) were spread on a PMMA plate, for each compound including PBSA, and placed under a solar simulator for one hour before repeating HPLC analysis.

The format of data set [5] is physicochemical. The protocol: as §2
Molecules 3 and 12 were challenged in accelerated stability studies against the parent compound. The formulations were submitted to accelerated aging at 40 °C and analyzed at specific intervals, with HPLC.

The mark [6] stands for this setting: read-out: % Cell survival UVA 20 J/cm^2.
Where [7] appears, read: read-out: % Cell survival UVB 0.5 J/cm^2.
Setting [8] is: read-out: % Cell survival UVB 1 J/cm^2.

Description for NCTC-2544 cells: as §3
Two HPW 125 Philips lamps, mainly emitting at 365 nm, were used for UVA irradiation experiments. The spectral irradiance of the source was 4.0 mWcm^−^2 as measured at the sample level by a Cole-Parmer Instrument Company radiometer (Niles, IL) equipped with a 365-CX sensor. One or two PL-S 9 W/12 Philips lamps (280–370 nm; peak at 315 nm) were used for UVB irradiation experiments. To restrict the incident radiation to the range 305–370 nm, a glass filter (Schott SWG-305) was used. Total energy was detected by the same equipped with a sensor (model CX-312).
After medium removal, 100 μL of the drug solution, dissolved in DMSO and diluted with Hank’s Balanced Salt Solution (HBSS pH =7.2), was added to each well, incubated at 37 °C for 30 min, and then irradiated (20 J/cm^2 for UVA and 0.5 and 1 J/cm^2 for UVB). After irradiation, the solution was replaced with the medium and the plates were further incubated for 48 h. Cell viability was assayed by the MTT [(3–(4,5-dimethylthiazol-2-yl)-2,5 diphenyl tetrazolium bromide)] test as previously described by Mosmann[27].
Molecules were verified for their photocytotoxicity in the same cell line; the cells were treated with 50 μM solutions of compound and after 30 min were irradiated with 20 J/cm^2 UVA or with UVB at two energy amounts: 0.5 J/cm^2 and 1 J/cm^2 UVB. […] After irradiation, the solution was replaced with growth medium and the cells were further incubated for 48 h, and then, cell viability was assessed by MTT assay. […] The phototoxicity of tested molecules was compared with the ratio of cell survival of irradiated keratinocytes without substance (IC = irradiated control).

Broadly, the IC50 is the concentration that inhibits the measured activity by half. Low readings indicate higher potency, high ones lower potency. Regarding `O=S(=O)(O)c1ccc2[nH]c(-c3ccc(O)cc3)nc2c1` [Compound 2, 2-(4-Hydroxy-phenyl)-1H-benzimidazole-5-sulfonic acid], the PCL in data set [1] is 11.36 ± 0.08 μmolTrolox/mmol. In addition, the “PCL of finished formulation” value in data set [2] is recorded as 0.33 ± 0.03 μmol Trolox/g formulation. In data set [3], this compound registered an IC50 at 72 h of 26.4 ± 2.7 µM. Besides, the results for the viability at 20 µM with NCTC-2544 cells (setting [6]), with NCTC-2544 cells (setting [7]) and with NCTC-2544 cells (setting [8]) were 77.3 ± 2.8%, 78 ± 3.5% and 46.7 ± 3.4%, respectively.

As for `O=S(=O)(O)c1ccc2[nH]c(-c3ccc(O)c(O)c3)nc2c1` [Compound 3, 2-(3,4-Dihydroxy-phenyl)-1H-benzimidazole-5-sulfonic acid], the PCL in data set [1] is 22,838 ± 836,26 μmolTrolox/mmol. The “PCL of finished formulation” value in data set [2] is recorded as 2212.09 ± 68.35 μmol Trolox/g formulation. The “Residual product (photostability)” value in data set [4] was 94.9% ± 0.8%. Besides, in data set [5], the “% of remaining compounds T0” value was determined as 100%, the “% of remaining compounds T7” value is reported as 96,7%, the “% of remaining compounds T14” value was 89,6% and the “% of remaining compounds T21” value is recorded as 86,3%. In data set [5], the “% of remaining compounds T28” value was 73,4%, the “% of remaining compounds T35” value is given as 73,4%, the “% of remaining compounds T49” value is given as 67,6% and the “% of remaining compounds T63” value is on record as 64,6%. Besides, in data set [3], the IC50 at 72 h was above 50 µM. The viability at 50 µM in the data set on NCTC-2544 cells (setting [6]) was determined as 77.4 ± 4%. Besides, the viability at 50 µM in the data set with NCTC-2544 cells (setting [7]) was found to be 71.5 ± 2.5%. For the same compound, the viability at 50 µM with NCTC-2544 cells (setting [8]) was 58.1 ± 2.6%. The “cell survival in relation to the irradiated control” value (shortened to “cell survival in relation”) with NCTC-2544 cells is reported as “doubled”.

On to `O=S(=O)(O)c1ccc2[nH]c(-c3ccccc3O)nc2c1` [Compound 4, 2-(2-Hydroxy-phenyl)-1H-benzimidazole-5-sulfonic acid], for which the PCL in data set [1] was found to be 2.06 ± 0.05 μmolTrolox/mmol. For the same compound, in data set [2], the “PCL of finished formulation” value was 0.06 ± 0.02 μmol Trolox/g formulation. For the same compound, in data set [3], the IC50 at 72 h is above 50 µM. In addition, the viability at 50 µM with NCTC-2544 cells (setting [6]) worked out at 76.9 ± 2%; in the data set on NCTC-2544 cells (setting [7]) it was 74.3 ± 3.2%; with NCTC-2544 cells (setting [8]), 37.7 ± 1.7%.

Turning to `O=S(=O)(O)c1ccc2[nH]c(-c3ccc(O)cc3O)nc2c1` [Compound 5, 2-(2,4-Dihydroxy-phenyl)-1H-benzimidazole-5-sulfonic acid], the PCL in data set [1] is on record as 159.1 ± 4.3 μmolTrolox/mmol. The “PCL of finished formulation” value in data set [2] is 0.95 ± 0.02 μmol Trolox/g formulation. The compound also registered an IC50 at 72 h in data set [3] above 50 µM. Also, the viability at 50 µM came out at 79 ± 6% in the data set with NCTC-2544 cells (setting [6]), 70.8 ± 3.9% in the data set on NCTC-2544 cells (setting [7]) and 38.6 ± 3.7% in the data set with NCTC-2544 cells (setting [8]).

With `O=S(=O)(O)c1ccc2[nH]c(-c3ccc(O)c(O)c3O)nc2c1` [Compound 6, 2-(2,3,4-Trihydroxy-phenyl)-1H-benzimidazole-5-sulfonic acid], in data set [1], the PCL is listed as 1924.35 ± 101.82 μmolTrolox/mmol. For the same compound, in data set [2], the “PCL of finished formulation” value was found to be 101.98 ± 1.08 μmol Trolox/g formulation. For the same compound, half-maximal inhibition in data set [3] (IC50 at 72 h) was put at 23.1 ± 2.9 µM. Besides, the viability at 20 µM turned out to be 18.4 ± 2.3% in the data set on NCTC-2544 cells (setting [6]), 59.3 ± 3.4% in the data set on NCTC-2544 cells (setting [7]) and 29.7 ± 2.1% in the data set with NCTC-2544 cells (setting [8]). Moreover, the “phototoxic effect (cell survival vs irradiated control)” value in the data set on NCTC-2544 cells was “phototoxic effect”.

Take `Oc1ccc(-c2nc3ccccc3[nH]2)cc1O` [Compound 8, 2-(3,4-Dihydroxy-phenyl)-1H-benzimidazole]: the PCL in data set [1] is on record as 19190.6 ± 443.18 μmolTrolox/mmol. For the same compound, in data set [2], the “PCL of finished formulation” value is 2972.107 ± 145.63 μmol Trolox/g formulation. In data set [3], the IC50 at 72 h was above 50 µM. Besides, the viability at 50 µM with NCTC-2544 cells (setting [6]) is 62.9 ± 4.3%; in the data set with NCTC-2544 cells (setting [7]), 72.8 ± 1%; in the data set on NCTC-2544 cells (setting [8]) it was 43.9 ± 3.4%.

Take `Oc1ccc(-c2nc3ccccc3[nH]2)c(O)c1O` [Compound 11, 2-(2,3,4-Trihydroxy-phenyl)-1H-benzimidazole]: in data set [1], the PCL came out at 1614.675 ± 19.95 μmolTrolox/mmol. In addition, the “PCL of finished formulation” value in data set [2] is 153.35 ± 8.14 μmol Trolox/g formulation. This compound displayed an IC50 at 72 h in data set [3] above 50 µM. The figures for the viability at 50 µM with NCTC-2544 cells (setting [6]), in the data set with NCTC-2544 cells (setting [7]) and in the data set with NCTC-2544 cells (setting [8]) were 1.2 ± 0.2%, 45.6 ± 2.6% and 27 ± 2.4%, respectively. For the same compound, the “phototoxic effect (cell survival vs irradiated control)” value in the data set with NCTC-2544 cells is on record as “phototoxic effect”.

Take `O=C(O)c1ccc2[nH]c(-c3ccc(O)cc3O)nc2c1` [Compound 13, 2-(2,4-Dihydroxy-phenyl)-1H-benzimidazole-5-carboxylic acid]: the PCL in data set [1] is reported as 160.26 ± 4.09 μmolTrolox/mmol. Further, the “PCL of finished formulation” value in data set [2] was 4.97 ± 0.17 μmol Trolox/g formulation. Besides, the IC50 at 72 h in data set [3] was above 50 µM. For the same compound, the viability at 50 µM worked out at 80.7 ± 1.3% in the data set with NCTC-2544 cells (setting [6]), 69 ± 0.2% in the data set on NCTC-2544 cells (setting [7]) and 57.5 ± 2.4% in the data set on NCTC-2544 cells (setting [8]). In addition, the “cell survival in relation” value in the data set with NCTC-2544 cells is “doubled”.

Turning to `O=C(O)c1ccc2[nH]c(-c3ccc(O)cc3)nc2c1` [Compound 14, 2-(4-Hydroxy-phenyl)-1H-benzimidazole-5-carboxylic acid], in data set [1], the PCL turned out to be 6.98 ± 0.27 μmolTrolox/mmol. Further, the “PCL of finished formulation” value in data set [2] came out at 0.16 ± 0.02 μmol Trolox/g formulation. The compound further came in with an IC50 at 72 h in data set [3] above 50 µM. The viability at 50 µM turned out to be 76.7 ± 3.4% in the data set with NCTC-2544 cells (setting [6]), 74.2 ± 3.4% with NCTC-2544 cells (setting [7]) and 58.4 ± 2.5% in the data set on NCTC-2544 cells (setting [8]). Moreover, in the data set with NCTC-2544 cells, the “cell survival in relation” value is given as “doubled”.

As for `O=C(O)c1ccc2[nH]c(-c3ccc(O)c(O)c3O)nc2c1` [Compound 15, 2-(2,3,4-Trihydroxy-phenyl)-1H-benzimidazole-5-carboxylic acid], in data set [1], the PCL was found to be 1515.65 ± 75.56 μmolTrolox/mmol. Besides, in data set [2], the “PCL of finished formulation” value stood at 86.99 ± 6.95 μmol Trolox/g formulation. This compound gave an IC50 at 72 h in data set [3] above 50 µM. Moreover, the viability at 50 µM with NCTC-2544 cells (setting [6]) was 12.2 ± 1.3%; with NCTC-2544 cells (setting [7]), 60.1 ± 2.3%; in the data set on NCTC-2544 cells (setting [8]) it was 25.6 ± 2.7%. Also, in the data set with NCTC-2544 cells, the “phototoxic effect (cell survival vs irradiated control)” value is “phototoxic effect”.

The values are drawn from publication PMC6010047, “Design, synthesis and biological evaluation of novel hydroxy-phenyl-1H-benzimidazoles as radical scavengers and UV-protective agents” (Journal of Enzyme Inhibition and Medicinal Chemistry, 2017).
